These results are taken from patent US8329726B2, “Inhibitors of VEGF receptor and HGF receptor signaling” (MethylGene Inc., priority 2005, dated 2012).

Assay [1] concerns the target T1, recombinant human c-Met/HGF receptor (Homo sapiens, UniProt P08581).
T1 construct: His tag (pBlueBacHis2A vector); made in house; host or cells: Hi-5 cells (Trichoplusia ni), baculovirus
Kind of assay: In vitro receptor tyrosine kinase assay (DELFIA), c-Met/HGF receptor. The conditions noted are these: read-out: CMET IC50. Format: biochemical. Here is the method:
Cell pellets were frozen at −80° C. until purification was performed.
The coated plates were washed and stored at 4° C. […] After incubation, the kinase reactions were quenched with EDTA and the plates were washed.

The target of another assay is T2, VEGF receptor KDR (Homo sapiens, UniProt P35968).
T2 construct: made in house; host or cells: Sf9 cells (Spodoptera frugiperda), baculovirus
T2 sequence (P35968 806-1356): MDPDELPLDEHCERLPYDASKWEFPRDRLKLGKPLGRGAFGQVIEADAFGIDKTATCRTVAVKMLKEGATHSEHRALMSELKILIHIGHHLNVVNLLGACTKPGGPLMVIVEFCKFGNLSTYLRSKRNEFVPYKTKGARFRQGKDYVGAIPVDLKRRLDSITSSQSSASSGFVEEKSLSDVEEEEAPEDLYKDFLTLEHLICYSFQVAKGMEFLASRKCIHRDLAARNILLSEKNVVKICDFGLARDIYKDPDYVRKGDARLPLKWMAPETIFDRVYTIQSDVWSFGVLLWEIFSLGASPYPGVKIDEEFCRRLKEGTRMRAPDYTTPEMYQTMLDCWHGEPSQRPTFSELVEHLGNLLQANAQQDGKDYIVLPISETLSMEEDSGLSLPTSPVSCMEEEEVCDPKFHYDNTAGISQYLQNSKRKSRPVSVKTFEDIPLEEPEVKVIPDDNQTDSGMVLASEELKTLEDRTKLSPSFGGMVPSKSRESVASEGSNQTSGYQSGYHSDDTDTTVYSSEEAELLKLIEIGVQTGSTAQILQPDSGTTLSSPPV
The assay is described as follows: In vitro receptor tyrosine kinase assay (DELFIA), VEGF receptor KDR. Format: biochemical. The conditions noted are these: read-out: VEGFR IC50.

The next assay deals with A549. The assay is described as follows: A549 wound healing inhibition (HGF dependent migration). It counts as cell-based. The settings on record: Homo sapiens, A549 cells, read-out: A549 WOUND HEALING INHIB IC50. The source says:
(§1) HGF has well known activity in terms of inducing scattering and migration (wound healing) (Wells et al., Cell Motil Cytoskeleton. 2005 November 62(3):180-94; Miura et al., Urology 2001 December 58(6):1064-9; Nishimura et al., Int J Urol. 1998 May 5(3):276-81; Wang et al., Mol Cancer Ther. 2003 November; 2(11):1085-92; and Christensen et al., Cancer Res. 2003 Nov. 1; 63(21):7345-55).

The next assay concerns DU145. Kind of assay: DU145 scattering inhibition (HGF dependent scattering). Format: cell-based. The conditions noted are these: Homo sapiens, DU-145; HGF dependent scattering, DU145 cells; read-out: DU145 SCATTERING INHIB IC50.
From the text: as §1

Some results are limits rather than exact numbers.

The term IC50 denotes the concentration that gives 50% inhibition.

T1 sequence (P08581 1078-1337): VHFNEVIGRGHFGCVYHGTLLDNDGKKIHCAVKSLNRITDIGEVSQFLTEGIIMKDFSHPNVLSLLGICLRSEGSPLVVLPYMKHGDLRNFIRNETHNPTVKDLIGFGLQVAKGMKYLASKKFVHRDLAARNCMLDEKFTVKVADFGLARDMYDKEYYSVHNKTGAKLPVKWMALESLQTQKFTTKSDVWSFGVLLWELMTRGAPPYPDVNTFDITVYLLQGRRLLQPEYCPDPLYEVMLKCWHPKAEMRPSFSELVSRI

On to `CCn1cnc(-c2cc3nccc(Oc4ccc(NC(=O)N5CCN(c6ccccc6)C5=O)cc4F)c3s2)c1`, for which the IC50 in assay [1] is less than 50 nM; at VEGF receptor KDR, less than 50 nM; in the assay on A549 it was less than 1000 nM; with DU145, less than 1000 nM.

As to `Cn1cnc(-c2cc3nccc(Nc4ccc(NC(=O)C5CCN(c6ccccc6)C5=O)cc4F)c3s2)c1` (stereo not drawn), the IC50 in assay [1] is 50 to 250 nM; on VEGF receptor KDR, 250 to 500 nM; in the assay on A549, less than 1000 nM; with DU145, 1000 to 5000 nM.

As to `CN1CCN(CCN(C)Cc2ccc(-c3cc4nccc(Oc5ccc(NC(=O)C6CCN(c7ccccc7)C6=O)cc5F)c4s3)cc2)CC1` (stereo not drawn), the IC50 in assay [1] is less than 50 nM; on VEGF receptor KDR, less than 50 nM; with A549, 1000 to 5000 nM; with DU145, less than 1000 nM.

Consider `CN(C)CCCN(C)Cc1ccc(-c2cc3nccc(Oc4ccc(NC(=O)CC(=O)N(C)c5ccccc5)cc4F)c3s2)cc1`, for which the IC50 in assay [1] is less than 50 nM; on VEGF receptor KDR it was less than 50 nM; in the assay with A549 it was less than 1000 nM; with DU145, less than 1000 nM.

As to `Cn1cnc(-c2cc3nccc(Nc4ccc(NC(=O)C5(C(=O)Nc6ccc(F)cc6)CC5)cc4F)c3s2)c1`, the IC50 in assay [1] was less than 50 nM; at VEGF receptor KDR it was less than 50 nM; with A549 it was less than 1000 nM; in the assay on DU145 it was less than 1000 nM.

For `CN1CCN(CCN(C)Cc2ccc(-c3cc4nccc(Oc5ccc(NC(=O)C6(C(=O)Nc7ccc(F)cc7)CC6)cc5F)c4s3)cc2)CC1`, the IC50 in assay [1] was less than 50 nM; on VEGF receptor KDR it was less than 50 nM; in the assay on A549 it was 1000 to 5000 nM; in the assay with DU145 it was less than 1000 nM.

`CN1CCN(C(=O)C2(C(=O)Nc3ccc(Oc4ccnc5cc(-c6cn(C)cn6)sc45)c(F)c3)CC2)c2ccccc21`: the IC50 was greater than 500 nM in assay [1], less than 50 nM on VEGF receptor KDR, 1000 to 5000 nM in the assay on A549 and 1000 to 5000 nM in the assay on DU145.

Turning to `CN(C(=O)C1(C(=O)Nc2ccc(Oc3ccnc4cc(-c5cn(C)cn5)sc34)c(F)c2)CC1)c1ccccc1`, the half-maximal inhibitory concentration (IC50) in assay [1] was greater than 500 nM; at VEGF receptor KDR it was 50 to 250 nM; in the assay with A549, less than 1000 nM; with DU145 it was 1000 to 5000 nM.

On to `Cn1cnc(-c2cc3nccc(Oc4ccc(NC(=O)C5(C)CCN(c6ccccc6)C5=O)cc4F)c3s2)c1` (stereo not drawn), for which the IC50 was 50 to 250 nM in assay [1], 250 to 500 nM at VEGF receptor KDR, 1000 to 5000 nM with A549 and 1000 to 5000 nM with DU145.

With `CCn1cnc(-c2cc3nccc(Oc4ccc(NC(=O)C5CCN(c6ccccc6)C5=O)cc4F)c3s2)c1` (stereo not drawn), the IC50 in assay [1] is less than 50 nM; on VEGF receptor KDR, less than 50 nM; in the assay on A549, less than 1000 nM; in the assay with DU145 it was less than 1000 nM.

Take `CN(C)CCn1cnc(-c2cc3nccc(Oc4ccc(NC(=O)N5CCN(c6ccccc6)C5=O)cc4F)c3s2)c1`: the IC50 in assay [1] was less than 50 nM; on VEGF receptor KDR it was less than 50 nM; in the assay on A549 it was less than 1000 nM; in the assay on DU145 it was less than 1000 nM.

With `CN1CCN(Cc2ccc(-c3cc4nccc(Oc5ccc(NC(=O)C6CCN(c7ccccc7)C6=O)cc5F)c4s3)nc2)CC1` (stereo not drawn), the IC50 in assay [1] was 50 to 250 nM; on VEGF receptor KDR, less than 50 nM; in the assay on A549 it was 1000 to 5000 nM; with DU145 it was 1000 to 5000 nM.

For `CN1CCN(CCN(C)Cc2ccc(-c3cc4nccc(Oc5ccc(NC(=O)CC(=O)N(C)c6ccc(F)cc6)cc5F)c4s3)cc2)CC1`, the IC50 was less than 50 nM in assay [1], less than 50 nM at VEGF receptor KDR, 1000 to 5000 nM in the assay with A549 and less than 1000 nM in the assay with DU145.

Consider `CN(C)[C@H]1CCN(Cc2ccc(-c3cc4nccc(Oc5ccc(NC(=O)CC(=O)Nc6ccccc6)cc5F)c4s3)cc2)C1`, for which the IC50 in assay [1] was 50 to 250 nM; on VEGF receptor KDR, less than 50 nM; with A549, 1000 to 5000 nM; in the assay with DU145 it was less than 1000 nM.

Turning to `CN1CCN(CCN(C)Cc2ccc(-c3cc4nccc(Oc5ccc(NC(=O)N6CCN(c7ccccc7)C6=O)cc5F)c4s3)cc2)CC1`, the IC50 is less than 50 nM in assay [1], less than 50 nM at VEGF receptor KDR, greater than 10000 nM in the assay on A549 and 1000 to 5000 nM in the assay with DU145.
